We go through six molecules from patent US3976771A, “Glycylglycine amide preparations and method of use antiarrhythmic” (priority 1972, dated 1976).

“Also recorded” adds a separate entry of the source.

In one data set the test system is mice. Briefly: Acute oral toxicity in mice. Particulars: deaths during 7 days. It counts as in vivo. As to the method: For determination of acute toxicity groups of 10 mice were treated orally with varying doses of compound observing the incidence of death, during a 7 days period. LD50 and LD 0.1 were calculated by means of a logarithmic-probit graph paper.
In data set [1] the test system is ventricular fibrillation upon exposure to chloroform vapor. Briefly: Protection against chloroform-induced ventricular fibrillation in mice. It counts as in vivo. The source says:
The method used in mice was essentially the same as described by Lawson (J. Pham. Exp. Therap. 160, 22 (1968). Male mice (NMRI, 17-25 g) were used. Unanesthetized, untreated mice show cardiac ventricular fibrillation upon exposure to chloroform vapor. The ventricular fibrillation is abolished if the animals are pretreated with appropriate doses of known antiarrhythmic agents before exposure to chloroform.
For determination of antiarrhythmic effect groups of 10 mice were pretreated by the oral route with varying sublethal doses of compound 10 to 300 min. respectively before being placed individually in a beaker containing chloroform. The mouse was removed from the beaker at the time of respiratory arrest and the thorax opened. Examination of ventricular fibrillation was made by means of ECG-recordings (lead II). The effect of the compound was expressed as the number of animals in per cent which were protected from fibrillation.

The subject of data set [2] is aconitine-induced arrhythmias. Briefly: Protection against aconitine-induced arrhythmias in the guinea-pig. In kind it is in vivo. Particulars: for Dose of aconitine necessary for development of ECG-changes indicating Asystolie / Dose of aconitine necessary for development of ECG-changes indicating Fibrillation / Dose of aconitine necessary for development of ECG-changes indicating Tachycardia: 15 min before aconitine infusion, mean ± standard error. The procedure:
The procedure used by Vargaftig et al. (Eur. J. Pharmacol. 6, 49, 1969) was slightly modified; Guinea-pigs of both sexes (250-400 g) were anaesthetized with uretane (1 g/kg bodyweight, i.p.). A plastic tube was introduced into the trachea and a thin plastic catheter into the jugular vein. Respiration was supported by means of a Harward Rodent Respirator 680. Aconitine was infused i.v. at a rate of 3 μg/min by means of a Palmer slow injection apparatus. The ECG (lead II) was continuously monitored. The amount of aconitine (μg/kg bodyweight) injected to induce ventricular tachycardia, fibrillation and asystolie was calculated. Test compounds were given i.p. with different time intervals between injection of drug and start of aconitine infusion.

For data set [3] the following is noted: due to low levels of the drug in the blood; cited from earlier work.
The subject of data set [4] is ventricular arrhythmias produced by coronary artery ligation. The data set is described as follows: Ventricular arrhythmias produced by coronary artery ligation in unanesthetized dogs. In kind it is in vivo. The settings on record: two dogs, constant i.v. infusion 0.5 mg/kg/min. The procedure: The effects of intravenous infusion of GEA968 was also studies on two unanesthesized dogs with ventricular arrhythmias produced by coronary artery ligation, essentially following the procedure of A. S. Harris, Circulation, Vol. I, page 1318 (1950). The two dogs with well-developed arrhythmias received a constant infusion of 0.5 mg/kg/min. of GEA968.

The test system of data set [5] is contractility of the heart. Briefly: Qualitative observation of side effects in the animal tests. In kind it is in vivo. The settings on record: preliminary indication. The source says:
However, it was qualitatively observed that the side effects of the compounds of the present invention appeared to be less significant.

[6] abbreviates: 100 mg/kg p.o., 10 min between pretreatment and chloroform vapor.
Where [7] appears, read: 100 mg/kg p.o., 60 min between pretreatment and chloroform vapor.

Take `CCN(CC)CC(=O)NCC(=O)Nc1ccccc1` [GEA 984, N,N-diethylglycylglycine anilide]: the “Toxicity LD50 p.o.” value in the data set with mice is reported as greater than 1000 mg/kg bodyweight. The “Percentage animals protected from fibrillation” value (“Percentage animals protected” below) is listed as 0 per cent in data set [1] (250 mg/kg p.o., 10 min); 0 per cent in data set [1] (250 mg/kg p.o., 60 min); 70 per cent in data set [1] (500 mg/kg p.o., 10 min); 10 per cent in data set [1] (500 mg/kg p.o., 60 min); 75 per cent in data set [1] (1000 mg/kg p.o., 10 min); 0 per cent in data set [1] (1000 mg/kg p.o., 60 min). The “Dose of aconitine necessary for development of ECG-changes indicating Asystolie” value (shortened to “Dose … of ECG-changes indicating Asystolie”) in data set [2] (100 mg/kg i.p.) is listed as 284 ± 29 μg/kg bodyweight. In addition, in data set [2] (100 mg/kg i.p.), the “Dose of aconitine necessary for development of ECG-changes indicating Fibrillation” value (from here on “Dose … of ECG-changes indicating Fibrillation”) is 211 ± 18 μg/kg bodyweight. Also, the “Dose of aconitine necessary for development of ECG-changes indicating Tachycardia” value (“Dose … of ECG-changes indicating Tachycardia” below) in data set [2] (100 mg/kg i.p.) turned out to be 95 ± 9 μg/kg bodyweight.

As for `CCN(CC)CC(=O)Nc1c(C)cccc1C` [Lidocaine, 2-diethylamino-2', 6'-acetoxylidide, reference compound], the “LD 0.1 (the dose which kills 0.1 % of the animals)” value in the data set on mice is reported as 150 mg/kg bodyweight. Moreover, in data set [2] (25 mg/kg i.p.), the “Dose … of ECG-changes indicating Asystolie” value came out at 237 ± 35 μg/kg bodyweight, the “Dose … of ECG-changes indicating Fibrillation” value was found to be 176 ± 12 μg/kg bodyweight and the “Dose … of ECG-changes indicating Tachycardia” value came out at 66 ± 7 μg/kg bodyweight. In addition, the Oral antiarrhythmic effectiveness entry in data set [3] was “not orally effective”.

For `CCN(CC)CC(=O)NCC(=O)NC(C)(C)c1ccccc1` [GEA 980, N^3,N^3 -diethyl-N^1 -(α,α-dimethylbenzyl) glycylglycine amide], in the data set on mice, the “Toxicity LD50 p.o.” value was greater than 500 mg/kg bodyweight. The “Percentage animals protected” value in data set [1] (setting [6]) stood at 11 per cent; in data set [1] (setting [7]) it was 10 per cent; in data set [1] (300 mg/kg p.o., 10 min) it was 25 per cent; in data set [1] (300 mg/kg p.o., 60 min), 10 per cent; in data set [1] (500 mg/kg p.o., 10 min) it was 65 per cent; in data set [1] (500 mg/kg p.o., 60 min), 0 per cent.

For `CCN(CC)CC(=O)N[C@@H](C)C(=O)NC(C)(C)c1ccccc1` [GEA 981, N^3,N^3 -diethyl-N^1 -(α,α-dimethylbenzyl)glycylalanineamide], the “LD 0.1 (the dose which kills 0.1 % of the animals)” value in the data set on mice was found to be 610 mg/kg bodyweight. In addition, in the data set with mice, the “Toxicity LD50 p.o.” value was found to be 880 mg/kg bodyweight. Besides, the “Percentage animals protected” value is listed as 35 per cent in data set [1] (88 mg/kg p.o. (one tenth of LD50), 10 min); 10 per cent in data set [1] (88 mg/kg p.o. (one tenth of LD50), 60 min); 90 per cent in data set [1] (610 mg/kg p.o. (LD 0.1), 10 min); 45 per cent in data set [1] (610 mg/kg p.o. (LD 0.1), 60 min).

On to `CCN(CC)[C@@H](C)C(=O)N[C@@H](C)C(=O)NC(C)(C)c1ccccc1` [GEA 982, N^3,N^3 -diethyl-N^1 -(α,α-dimethylbenzyl)alanylalanineamide], for which, in the data set on mice, the “LD 0.1 (the dose which kills 0.1 % of the animals)” value is reported as 210 mg/kg bodyweight. Moreover, the “Toxicity LD50 p.o.” value with mice worked out at 660 mg/kg bodyweight. Further, the “Percentage animals protected” value in data set [1] (66 mg/kg p.o. (one tenth of LD50), 10 min) is 0 per cent; in data set [1] (66 mg/kg p.o. (one tenth of LD50), 60 min), 0 per cent; in data set [1] (210 mg/kg p.o. (LD 0.1), 10 min), 40 per cent; in data set [1] (210 mg/kg p.o. (LD 0.1), 60 min), 15 per cent.

As to `CCN(CC)CC(=O)NCC(=O)Nc1c(C)cccc1C` [GEA 968, N,N-diethylglycylglycine-2,6-xylidide], in the data set on mice, the “LD 0.1 (the dose which kills 0.1 % of the animals)” value turned out to be 250 mg/kg bodyweight. For the same molecule, in the data set on mice, the “Toxicity LD50 p.o.” value is given as 535 mg/kg bodyweight. The “Percentage animals protected” value in data set [1] (54 mg/kg p.o. (one tenth of LD50), 10 min) worked out at 45 per cent; in data set [1] (54 mg/kg p.o. (one tenth of LD50), 60 min) it was 55 per cent; in data set [1] (54 mg/kg p.o. (one tenth of LD50), 300 min) it was 15 per cent; in data set [1] (setting [6]) it was 70 per cent; in data set [1] (setting [7]), 65 per cent; in data set [1] (100 mg/kg p.o., 300 min between pretreatment and chloroform vapor), 45 per cent. In addition, the “Percentage animals protected” value in data set [1] (250 mg/kg p.o., 10 min) stood at 90 per cent; in data set [1] (250 mg/kg p.o., 60 min), 90 per cent; in data set [1] (250 mg/kg p.o., 300 min), 70 per cent. Moreover, the “Antiarrhythmic effect in the chloroform test (in words)” value in data set [1] (mice, p.o.) is recorded as “good antiarrhythmic effects”. In addition, the “Duration of antiarrhythmic effectiveness (in words)” value in data set [1] (mouse, in vivo) was “especially significant”. Also, the “Dose … of ECG-changes indicating Asystolie” value came out at 210 ± 12 μg/kg bodyweight in data set [2] (25 mg/kg i.p.), 378 ± 33 μg/kg bodyweight in data set [2] (50 mg/kg i.p.) and 632 ± 132 μg/kg bodyweight in data set [2] (100 mg/kg i.p.). The “Dose … of ECG-changes indicating Fibrillation” value in data set [2] (25 mg/kg i.p.) was found to be 155 ± 10 μg/kg bodyweight; in data set [2] (50 mg/kg i.p.) it was 284 ± 25 μg/kg bodyweight; in data set [2] (100 mg/kg i.p.), 356 ± 32 μg/kg bodyweight. In addition, the “Dose … of ECG-changes indicating Tachycardia” value in data set [2] (25 mg/kg i.p.) came to 91 ± 6 μg/kg bodyweight; in data set [2] (50 mg/kg i.p.) it was 161 ± 15 μg/kg bodyweight; in data set [2] (100 mg/kg i.p.), 225 ± 35 μg/kg bodyweight. In addition, the “Antiarrhythmic effect in the aconitine test (in words)” value in data set [2] (guinea-pig, i.p.) is reported as “markedly potent; also recorded: good antiarrhythmic effects”. Further, in data set [4], the “Duration of suppression of arrhythmias” value is reported as “unusually long duration”. In addition, in data set [4], the “Effect on ventricular arrhythmias” value is “suppression of the arrhythmias”. Besides, the “Effect on contractility of the heart (qualitative)” value in data set [5] is reported as “improving the contractility of the heart”.
